Our source for the mutagenic call values is PubChem BioAssay AID1259407 (Chemical Carcinogenesis Research Information System (CCRIS), 2018).

In this data set the test system is CCRIS mutagenicity, Ames/micronucleus/aberration tests. The experiment in a line: CCRIS mutagenicity studies.
The mark [1] stands for this setting: Test System: AMES SALMONELLA TYPHIMURIUM, Strain/Indicator: TA98, Metabolic Activation: NONE, Method: PREINCUBATION
The mark [2] stands for this setting: Test System: AMES SALMONELLA TYPHIMURIUM, Strain/Indicator: TA100, Metabolic Activation: NONE, Method: PREINCUBATION

Activity calls are given as the source filed them. No rule for the calls is given here.

As to `O=C(O)C1C(C(=O)O)C2(Cl)C(Cl)=C(Cl)C1(Cl)C2(Cl)Cl` (stereo unspecified), the mutagenic call reads like this: (End Point: IN VITRO CHROMOSOMAL ABERRATIONS, Test System: CHINESE HAMSTER LUNG FIBROBLAST CELLS (CHL/IU), Metabolic Activation: RAT, LIVER, S-9, PHENOBARBITAL AND 5,6-BENZOFLAVONE) “active; positive (structural changes)”; (Test System: AMES SALMONELLA TYPHIMURIUM, Strain/Indicator: TA98, Metabolic Activation: HAMSTER, LIVER, S-9, AROCLOR 1254, Method: PREINCUBATION) “inactive; negative”; under setting [1], “inactive; negative”; (Test System: AMES SALMONELLA TYPHIMURIUM, Strain/Indicator: TA98, Metabolic Activation: RAT, LIVER, S-9, AROCLOR 1254, Method: PREINCUBATION) “inactive; negative”; (Test System: AMES SALMONELLA TYPHIMURIUM, Strain/Indicator: TA100, Metabolic Activation: HAMSTER, LIVER, S-9, AROCLOR 1254, Method: PREINCUBATION) “inactive; negative”; under setting [2], “inactive; negative”. In addition, the mutagenic call was “inactive; negative” (Test System: AMES SALMONELLA TYPHIMURIUM, Strain/Indicator: TA100, Metabolic Activation: RAT, LIVER, S-9, AROCLOR 1254, Method: PREINCUBATION); “inactive; negative” (Test System: AMES SALMONELLA TYPHIMURIUM, Strain/Indicator: TA1535, Metabolic Activation: HAMSTER, LIVER, S-9, AROCLOR 1254, Method: PREINCUBATION); “inactive; negative” (Test System: AMES SALMONELLA TYPHIMURIUM, Strain/Indicator: TA1535, Metabolic Activation: NONE, Method: PREINCUBATION); “inactive; negative” (Test System: AMES SALMONELLA TYPHIMURIUM, Strain/Indicator: TA1535, Metabolic Activation: RAT, LIVER, S-9, AROCLOR 1254, Method: PREINCUBATION); “inactive; negative” (Test System: AMES SALMONELLA TYPHIMURIUM, Strain/Indicator: TA1537, Metabolic Activation: HAMSTER, LIVER, S-9, AROCLOR 1254, Method: PREINCUBATION); “inactive; negative” (Test System: AMES SALMONELLA TYPHIMURIUM, Strain/Indicator: TA1537, Metabolic Activation: NONE, Method: PREINCUBATION). Besides, the mutagenic call by setting is: (Test System: AMES SALMONELLA TYPHIMURIUM, Strain/Indicator: TA1537, Metabolic Activation: RAT, LIVER, S-9, AROCLOR 1254, Method: PREINCUBATION) “inactive; negative”; (Test System: MOUSE LYMPHOMA, Strain/Indicator: L5178Y (TK+/TK-), Metabolic Activation: NONE, Method: MICROWELL) “active; positive”; (Test System: MOUSE LYMPHOMA, Strain/Indicator: L5178Y (TK+/TK-), Metabolic Activation: NONE, Method: SUSPENSION/PLATE) “active; positive”; (Test System: MOUSE LYMPHOMA, Strain/Indicator: L5178Y (TK+/TK-), Metabolic Activation: S-9, Method: MICROWELL) “active; positive”.

Take `CCCC(=O)Cl`: the mutagenic call is, setting by setting: (Test System: AMES SALMONELLA TYPHIMURIUM, Strain/Indicator: TA98, Metabolic Activation: HAMSTER, LIVER, S-9, AROCLOR 1254 (30%), Method: PREINCUBATION) “inactive; negative”; under setting [1], “inactive; negative”; (Test System: AMES SALMONELLA TYPHIMURIUM, Strain/Indicator: TA98, Metabolic Activation: RAT, LIVER, S-9, AROCLOR 1254 (30%), Method: PREINCUBATION) “inactive; negative”; (Test System: AMES SALMONELLA TYPHIMURIUM, Strain/Indicator: TA100, Metabolic Activation: HAMSTER, LIVER, S-9, AROCLOR 1254 (30%), Method: PREINCUBATION) “inactive; negative”; under setting [2], “inactive; negative”; (Test System: AMES SALMONELLA TYPHIMURIUM, Strain/Indicator: TA100, Metabolic Activation: RAT, LIVER, S-9, AROCLOR 1254 (30%), Method: PREINCUBATION) “inactive; negative”.

`O[C@@H]1[C@H]2O[C@H]2c2c(ccc3c2ccc2ccccc23)[C@H]1O`: the mutagenic call (Test System: AMES SALMONELLA TYPHIMURIUM, Strain/Indicator: TA97, Metabolic Activation: NONE, Method: PREINCUBATION) was “active; positive”; the mutagenic call under setting [1] is “active; positive”; the mutagenic call under setting [2] was “active; positive”; the mutagenic call (Test System: AMES SALMONELLA TYPHIMURIUM, Strain/Indicator: TA104, Metabolic Activation: NONE, Method: PREINCUBATION) is “active; positive”; the mutagenic call (Test System: CHINESE HAMSTER V-79, Strain/Indicator: V-79/6-THIOGUANINE, Metabolic Activation: NONE, Method: STANDARD PLATE) was “active; positive”.

For `COC(=O)N[C@H]1[C@H](O[C@H]2[C@H](O)[C@@H](N)[C@H](O[C@H]3[C@H](O)[C@@H](N)[C@H](O)O[C@@H]3CO)O[C@@H]2CO)O[C@H](CO)[C@@H](O[C@@H]2O[C@H](CO)[C@@H](O[C@@H]3O[C@H](CO)[C@@H](O[C@@H]4O[C@H](CO)[C@@H](O[C@@H]5O[C@H](CO)[C@@H](O[C@@H]6O[C@H](CO)[C@@H](O[C@@H]7O[C@H](CO)[C@@H](O)[C@H](O)[C@H]7N)[C@H](O)[C@H]6N)[C@H](O)[C@H]5N)[C@H](O)[C@H]4N)[C@H](O)[C@H]3N)[C@H](O)[C@H]2N)[C@@H]1O`, the mutagenic call reads like this: (End Point: IN VIVO CHROMOSOMAL ABERRATIONS, Test System: BONE MARROW CELLS (LYMPHOCYTES), Species: MOUSE, Strain/Sex: ICR/MALE, Route: DRINKING WATER) “inactive; negative”; (End Point: IN VIVO CHROMOSOMAL ABERRATIONS, Test System: BONE MARROW, Species: MOUSE, Strain/Sex: ICR/MALE, Route: DRINKING WATER) “inactive; negative”; (End Point: IN VIVO CHROMOSOMAL ABERRATIONS, Test System: BONE MARROW, Species: MOUSE, Strain/Sex: ICR/PARENT, F1, F2, F3 GENERATIONS, Strain/Sex: ICR/PARENT, F1, F2, F3 GENERATIONS, Route: DRINKING WATER) “inactive; negative in all generations”; (End Point: IN VIVO MICRONUCLEUS, Test System: BONE MARROW POLYCHROMATIC ERYTHROCYTES, Species: MOUSE, Strain/Sex: ICR/MALE, Route: DRINKING WATER) “inactive; negative”.
